Data set [1] deals with CHO-K1 (Chinese Hamster Ovarian Cancer, ATCC, CRL-2243) cell line. As to the kind of experiment: Efficacy study: ALA plus red OLED light, MTT cell viability. The data set is classed as cell-based. The conditions noted are these: ALA about 1 mM or higher, 16 hrs incubation, OLED light (630 nm) dose of 30 J/cm^2, FIG. 10.
Another data set has as its system CHO-K1 cells. Kind of data set: Optical microscope images of cells after red light irradiation. The data set is classed as cell-based, Chinese Hamster. The conditions noted are these: ALA treated CHO-K1 cells after 30 J/cm^2 red light (630 nm) irradiation; FIG. 9B.
The subject of data set [2] is CHO-K1 (Chinese Hamster Ovarian Cancer, ATCC, CRL-2243) cell line. Kind of data set: Conversion of ALA to protoporphyrin IX (PpIX) in cells, fluorescence emission. Format: cell-based. The conditions noted are these: ALA 1 mM and 2 mM, about 16 hrs at 37° C.; fluorescence emission at 635 nm.
The nature of data set [3]: Solubility observed on isolation. The data set is classed as physicochemical. Here is the method: 6,6′-di(benzo[d]thiazol-2-yl)-3,3′-bipyridine (17). A mixture of 9 (0.591 g, 2.03 mmol), 16 (0.700 g, 2.07 mmol), tetrakis(triphenylphosphine)palladium(0) (117 mg, 102 μmol), Na2CO3 (1.59 g, 15.0 mmol), H2O (15 mL) and THF (25 mL) was degassed with argon for about 20 min while stirring. The stirring reaction mixture was then maintained under argon at about 80° C. for about 19 h. Upon completion, the mixture was cooled to RT, filtered and the precipitate collected as a white solid (0.83 g, 97%).
2-(6′-(benzo[d]thiazol-2-yl)-3,3′-bipyridin-6-yl)benzo[d]oxazole (18). Following the procedure for 17, 11 (0.558 g, 2.03 mmol), 16 (0.700 g, 2.07 mmol),), tetrakis(triphenylphosphine)palladium(0) (117 mg, 102 μmol), Na2CO3 (1.59 g, 15.0 mmol), H2O (15 mL) and THF (25 mL) yielded an insoluble white solid (0.70 g, 84%) after filtration.

Data set [4] deals with age-related macular degeneration. As to the kind of experiment: Phototherapy of age-related macular degeneration with red light emitting OLED. Format: in vivo, person. The conditions noted are these: about 6 mg/m^2 intravenously; retina illuminated about 15 minutes after start of infusion.
The test system of another data set is pathological myopia. Kind of data set: Phototherapy of pathological myopia with red light emitting OLED. Format: in vivo, person. The conditions noted are these: about 6 mg/m^2 intravenously; retina illuminated about 15 minutes after start of infusion.
Data set [5] has as its system presumed ocular histoplasmosis. More on the design: species or system person. The conditions noted are these: in vivo, iv.

The structures appear in SMILES notation.

Take `NCC(=O)CCC(=O)O` [ALA, 5-aminolevulinic acid]: in data set [1], the cell death is reported as not below 90%. In the data set on CHO-K1 cells, the “cell morphology / cell death by optical microscope” value was “significant cell death”. Also, the “generation of PpIX” value in data set [2] was “confirmed”.
On to `c1ccc2sc(-c3ccc(-c4ccc(-c5nc6ccccc6s5)nc4)cn3)nc2c1` [Compound 17, 6,6′-di(benzo[d]thiazol-2-yl)-3,3′-bipyridine], for which the solubility result in data set [3] is listed as “insoluble in numerous common organic solvents”.
As for `c1ccc2oc(-c3ccc(-c4ccc(-c5nc6ccccc6s5)nc4)cn3)nc2c1` [Compound 18, 2-(6′-(benzo[d]thiazol-2-yl)-3,3′-bipyridin-6-yl)benzo[d]oxazole], the solubility entry in data set [3] is given as “insoluble”.
Turning to `C=Cc1c(C)c2cc3nc(cc4[nH]c(cc5nc(cc1[nH]2)C(C)=C5CCC(=O)O)c(CCC(=O)OC)c4C)[C@@]1(C)C3=CC=C(C(=O)OC)[C@H]1C(=O)OC` [Verteporphin], the “patient's vision” value (in data set [4]; with pathological myopia; in data set [5]) was “anticipated to be stabilized” each time.

Values taken from US20120179089A1, “SUBSTITUTED BIPYRIDINES FOR USE IN ORGANIC LIGHT-EMITTING DEVICES” (Nitto Denko Corporation, priority 2010, published 2012).
